# Publication PMC5007513, “Discovery of new diketopiperazines inhibiting Burkholderia cenocepacia quorum sensing in vitro and in vivo” (Scientific Reports, 2016)
# Where two headings read alike, the source gives them in different places.
# Target: T1, B. cenocepacia CepI (Burkholderia cenocepacia, UniProt B4EMD2)
# T1 sequence (B4EMD2 1-202): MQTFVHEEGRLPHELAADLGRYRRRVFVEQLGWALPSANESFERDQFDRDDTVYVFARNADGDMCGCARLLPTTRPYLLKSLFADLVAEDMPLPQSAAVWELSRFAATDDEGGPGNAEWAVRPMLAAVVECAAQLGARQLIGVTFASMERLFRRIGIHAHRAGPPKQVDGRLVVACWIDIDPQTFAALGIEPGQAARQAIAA
# Assay: CepI enzymatic assay (holo-ACP formation with DCPIP)
# Assay type: biochemical, Burkholderia cenocepacia J2315
# Experimental: Determination of the CepI enzyme activity was performed spectrophotometrically by measuring holo-ACP formation with dichlorophenylindophenol (DCPIP; ε = 19100 M^−1 cm^−1) at 37 °C according to Christensen et al.[19]. Reaction mixtures typically contained 50 mM 4-(2-hydroxyethyl)-1-piperazineethanesulfonic acid pH 7.5 (HEPES), 0.005% Nonidet P-40, 0.13 mM DCPIP, 70 μM C8-ACP, 40 μM S-adenosyl methionine (SAM), 4 μM CepI and the reaction was started by addition of SAM after pre-incubation for 10 min.
# CepI inhibition was initially screened for all compounds at 100 μM (dissolved in DMSO). […] To determine IC50, the enzyme activities were measured in presence of different concentrations of compounds and values determined with equation (1): […]
# where A[I] is the enzyme activity at inhibitor concentration [I] and A[0] is the enzyme activity without inhibitor.
# Ki determination was determined using the equation (2) for noncompetitive inhibition[49]: […]
# [1] = Supplementary Table S1, initial screen at 100 μM
# [2] = recombinant CepI, read-out: CepI IC50
compound,measurement,setting,value
O=C1N[C@H](Cc2ccccc2)C(=O)NC1c1cc(OCc2ccccc2)ccc1OCc1ccccc1 (stereo partly drawn) [6b],CepI IC50,[1],not inhibitory
O=C1C=CC(=O)C(C2NC(=O)CNC2=O)=C1 (stereo not drawn) [8a],IC50,"Supplementary Table S1, initial screen at 100 μM, read-out: CepI IC50",10 ± 1 µM
O=C1C=CC(=O)C(C2NC(=O)C(Cc3ccccc3)NC2=O)=C1 (stereo not drawn) [8b],IC50,,5 ± 0.8 µM
same,Ki,,17 ± 0.6 µM
same,mechanism of inhibition,towards both C8-ACP and SAM substrates,non-competitive inhibitor
CC(C)[C@H]1NC(=O)C(c2cc(OCc3ccccc3)ccc2OCc2ccccc2)NC1=O (stereo partly drawn) [6c],CepI IC50,[1],not inhibitory
CC(C)[C@H]1NC(=O)C(c2cc(O)ccc2O)NC1=O (stereo partly drawn) [7c],CepI IC50,[1],not inhibitory
CC(C)C1NC(=O)C(C2=CC(=O)C=CC2=O)NC1=O (stereo not drawn) [8c],IC50,[2],5 to 30 µM
O=C1CNC(=O)C(c2cc(OCc3ccccc3)ccc2OCc2ccccc2)N1 (stereo not drawn) [6a],IC50,,30 ± 6 µM
O=C1N[C@H](Cc2ccccc2)C(=O)NC1c1cc(O)ccc1O (stereo partly drawn) [7b],CepI IC50,[1],not inhibitory
"CN1CCN(C(c2ccccn2)c2c(-c3ccccc3)n(O)c3ccccc23)CC1 (stereo not drawn) [compound 1 from Christensen et al., reference compound]",IC50,[2],7.2 ± 0.2 µM
O=C1CNC(=O)C(c2cc(O)ccc2O)N1 (stereo not drawn) [7a],CepI IC50,[1],not inhibitory
